Structures can show the parent of a compound that is named as a salt.
What was measured:
Settings in all cases: exposure time: 72 h
E21 [1] = patient-derived glioblastoma stem cells of mesenchymal subtype; test: phenotypic distance (Euclidean, principal components) from DMSO controls (arbitrary units); higher = stronger morphological change
E34 [2] = patient-derived glioblastoma stem cells of proneural subtype; test: as above
E13 [3] = patient-derived glioblastoma stem cells of classical subtype; test: as above
E57 [4] = patient-derived glioblastoma stem cells of mesenchymal subtype; test: as above
E28 [5] = patient-derived glioblastoma stem cells of classical subtype; test: as above
E31 [6] = patient-derived glioblastoma stem cells of proneural subtype; test: as above
FT3469 [7] = normal neural stem cell line; test: as above
E21 [8] = test: surviving fraction (nuclei count normalised to DMSO); higher = more cells surviving (less toxic)
E34 [9] = test: as above
E13 [10] = test: as above
E57 [11] = test: as above
E28 [12] = test: as above
E31 [13] = test: as above
FT3469 [14] = test: as above
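Wherever phenotypic distance (Euclidean, principal components) from DMSO controls is given: cell Painting imaging in 384-well plates, CellProfiler features reduced to at least 20 principal components, Euclidean distance versus same-plate DMSO vehicle wells (0.1% v/v), median over six images per well.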
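Wherever surviving fraction (nuclei count normalised to DMSO) is given: nuclei counted by high-content imaging of Hoechst-stained cells in laminin-coated 384-well plates, relative to 0.1% DMSO vehicle wells, with staurosporine as cell-death control.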

Nc1nc(Cl)nc2c1ncn2[C@@H]1O[C@H](CO)[C@@H](O)[C@@H]1F [Clofarabine]
Settings	phenotypic distance	surviving fraction
E13 [3], 4.1 nM	0.623	–
E13 [3], 12.3 nM	2.78	–
E13 [3], 37 nM	0.684	–
E13 [3], 111.1 nM	0.632	–
E13 [3], 333.3 nM	0.616	–
E13 [3], 1000 nM	1.66	–
E13 [3], 3000 nM	5.91	–
E13 [10], 4.1 nM	–	0.852
E13 [10], 12.3 nM	–	0.979
E13 [10], 37 nM	–	0.86
E13 [10], 111.1 nM	–	0.941
E13 [10], 333.3 nM	–	0.913
E13 [10], 1000 nM	–	0.789
E13 [10], 3000 nM	–	0.318
E21 [1], 4.1 nM	0.844	–
E21 [1], 12.3 nM	1.11	–
E21 [1], 37 nM	1.36	–
E21 [1], 111.1 nM	2.15	–
E21 [1], 333.3 nM	4.37	–
E21 [1], 1000 nM	4.92	–
E21 [1], 3000 nM	4.35	–
E21 [8], 4.1 nM	–	0.962
E21 [8], 12.3 nM	–	0.885
E21 [8], 37 nM	–	0.825
E21 [8], 111.1 nM	–	0.771
E21 [8], 333.3 nM	–	0.343
E21 [8], 1000 nM	–	0.118
E21 [8], 3000 nM	–	0.116
E28 [5], 4.1 nM	1.24	–
E28 [5], 12.3 nM	1.42	–
E28 [5], 37 nM	1.73	–
E28 [5], 111.1 nM	2.31	–
E28 [5], 333.3 nM	3.06	–
E28 [5], 1000 nM	3.17	–
E28 [5], 3000 nM	3.21	–
E28 [12], 4.1 nM	–	0.864
E28 [12], 12.3 nM	–	0.907
E28 [12], 37 nM	–	0.515
E28 [12], 111.1 nM	–	0.559
E28 [12], 333.3 nM	–	0.341
E28 [12], 1000 nM	–	0.366
E28 [12], 3000 nM	–	0.3
E31 [6], 4.1 nM	1.08	–
E31 [6], 12.3 nM	1.33	–
E31 [6], 37 nM	1.67	–
E31 [6], 111.1 nM	2.85	–
E31 [6], 333.3 nM	3.28	–
E31 [6], 1000 nM	2.52	–
E31 [6], 3000 nM	2.66	–
E31 [13], 4.1 nM	–	0.754
E31 [13], 12.3 nM	–	0.892
E31 [13], 37 nM	–	0.64
E31 [13], 111.1 nM	–	0.205
E31 [13], 333.3 nM	–	0.142
E31 [13], 1000 nM	–	0.236
E31 [13], 3000 nM	–	0.206
E34 [2], 4.1 nM	0.795	–
E34 [2], 12.3 nM	0.848	–
E34 [2], 37 nM	0.943	–
E34 [2], 111.1 nM	2.17	–
E34 [2], 333.3 nM	3.94	–
E34 [2], 1000 nM	3.25	–
E34 [2], 3000 nM	3.42	–
E34 [9], 4.1 nM	–	0.858
E34 [9], 12.3 nM	–	1.04
E34 [9], 37 nM	–	0.894
E34 [9], 111.1 nM	–	0.777
E34 [9], 333.3 nM	–	0.558
E34 [9], 1000 nM	–	0.495
E34 [9], 3000 nM	–	0.541
E57 [4], 4.1 nM	0.635	–
E57 [4], 12.3 nM	1.15	–
E57 [4], 37 nM	2.09	–
E57 [4], 111.1 nM	5.48	–
E57 [4], 333.3 nM	5.92	–
E57 [4], 1000 nM	6.82	–
E57 [4], 3000 nM	6.53	–
E57 [11], 4.1 nM	–	0.939
E57 [11], 12.3 nM	–	0.847
E57 [11], 37 nM	–	0.741
E57 [11], 111.1 nM	–	0.402
E57 [11], 333.3 nM	–	0.186
E57 [11], 1000 nM	–	0.168
E57 [11], 3000 nM	–	0.165
FT3469 [7], 4.1 nM	0.724	–
FT3469 [7], 12.3 nM	0.807	–
FT3469 [7], 37 nM	0.917	–
FT3469 [7], 111.1 nM	1.95	–
FT3469 [7], 333.3 nM	2.04	–
FT3469 [7], 1000 nM	1.6	–
FT3469 [7], 3000 nM	2.19	–
FT3469 [14], 4.1 nM	–	0.827
FT3469 [14], 12.3 nM	–	0.915
FT3469 [14], 37 nM	–	0.875
FT3469 [14], 111.1 nM	–	0.79
FT3469 [14], 333.3 nM	–	0.702
FT3469 [14], 1000 nM	–	0.497
FT3469 [14], 3000 nM	–	0.428

CCCCCCC[N+](CC)(CC)CCCCc1ccc(Cl)cc1 [Clofilium tosylate]
Settings	phenotypic distance	surviving fraction
E13 [3], 4.1 nM	0.802	–
E13 [3], 12.3 nM	1.25	–
E13 [3], 37 nM	0.557	–
E13 [3], 111.1 nM	0.985	–
E13 [3], 333.3 nM	0.488	–
E13 [3], 1000 nM	0.667	–
E13 [3], 3000 nM	1.83	–
E13 [10], 4.1 nM	–	1.17
E13 [10], 12.3 nM	–	1.06
E13 [10], 37 nM	–	0.817
E13 [10], 111.1 nM	–	0.945
E13 [10], 333.3 nM	–	0.896
E13 [10], 1000 nM	–	0.937
E13 [10], 3000 nM	–	0.609
E21 [1], 4.1 nM	0.676	–
E21 [1], 12.3 nM	1	–
E21 [1], 37 nM	1.04	–
E21 [1], 111.1 nM	1.16	–
E21 [1], 333.3 nM	1.29	–
E21 [1], 1000 nM	1.68	–
E21 [1], 3000 nM	3.13	–
E21 [8], 4.1 nM	–	1
E21 [8], 12.3 nM	–	1.11
E21 [8], 37 nM	–	1.1
E21 [8], 111.1 nM	–	1
E21 [8], 333.3 nM	–	0.976
E21 [8], 1000 nM	–	1.12
E21 [8], 3000 nM	–	0.609
E28 [5], 4.1 nM	0.664	–
E28 [5], 12.3 nM	1.16	–
E28 [5], 37 nM	0.464	–
E28 [5], 111.1 nM	0.925	–
E28 [5], 333.3 nM	0.998	–
E28 [5], 1000 nM	1.17	–
E28 [5], 3000 nM	1.84	–
E28 [12], 4.1 nM	–	0.984
E28 [12], 12.3 nM	–	1.28
E28 [12], 37 nM	–	0.96
E28 [12], 111.1 nM	–	1.18
E28 [12], 333.3 nM	–	1.16
E28 [12], 1000 nM	–	1.05
E28 [12], 3000 nM	–	0.485
E31 [6], 4.1 nM	0.758	–
E31 [6], 12.3 nM	0.742	–
E31 [6], 37 nM	0.443	–
E31 [6], 111.1 nM	0.89	–
E31 [6], 333.3 nM	0.62	–
E31 [6], 1000 nM	1.43	–
E31 [6], 3000 nM	2.44	–
E31 [13], 4.1 nM	–	0.763
E31 [13], 12.3 nM	–	1.03
E31 [13], 37 nM	–	1.04
E31 [13], 111.1 nM	–	0.913
E31 [13], 333.3 nM	–	1.01
E31 [13], 1000 nM	–	0.95
E31 [13], 3000 nM	–	0.452
E34 [2], 4.1 nM	1	–
E34 [2], 12.3 nM	1.05	–
E34 [2], 37 nM	0.94	–
E34 [2], 111.1 nM	1.17	–
E34 [2], 333.3 nM	1.13	–
E34 [2], 1000 nM	1.33	–
E34 [2], 3000 nM	1.86	–
E34 [9], 4.1 nM	–	1.09
E34 [9], 12.3 nM	–	1.07
E34 [9], 37 nM	–	0.961
E34 [9], 111.1 nM	–	0.954
E34 [9], 333.3 nM	–	0.998
E34 [9], 1000 nM	–	1.02
E34 [9], 3000 nM	–	0.813
E57 [4], 4.1 nM	0.657	–
E57 [4], 12.3 nM	0.645	–
E57 [4], 37 nM	0.931	–
E57 [4], 111.1 nM	0.93	–
E57 [4], 333.3 nM	0.68	–
E57 [4], 1000 nM	0.764	–
E57 [4], 3000 nM	1.73	–
E57 [11], 4.1 nM	–	1.1
E57 [11], 12.3 nM	–	0.992
E57 [11], 37 nM	–	1.14
E57 [11], 111.1 nM	–	0.977
E57 [11], 333.3 nM	–	1.02
E57 [11], 1000 nM	–	0.959
E57 [11], 3000 nM	–	0.866
FT3469 [7], 4.1 nM	0.575	–
FT3469 [7], 12.3 nM	1.1	–
FT3469 [7], 37 nM	0.53	–
FT3469 [7], 111.1 nM	1.01	–
FT3469 [7], 333.3 nM	0.917	–
FT3469 [7], 1000 nM	1.08	–
FT3469 [7], 3000 nM	1.3	–
FT3469 [14], 4.1 nM	–	1.12
FT3469 [14], 12.3 nM	–	1.26
FT3469 [14], 37 nM	–	0.944
FT3469 [14], 111.1 nM	–	1.13
FT3469 [14], 333.3 nM	–	1.13
FT3469 [14], 1000 nM	–	1.07
FT3469 [14], 3000 nM	–	0.838
